The source of these data is patent publication US11161839B2, “2-quinolone derived inhibitors of BCL6” (Cancer Research Technology Limited, priority 2017, dated 2021).

Test [1] concerns the target human BCL6 BTB domain (Trx-6xHis-BCL6) (Homo sapiens (Human), UniProt P41182). In words: HTRF in vitro assay (BCL6 BTB domain / BCOR-AF633 peptide). The settings on record: further generated data (Table 1b), 1 nM Trx-6xHis-BCL6, 0.5 nM anti-6xHis-Terbium cryptate. It is filed as binding. (In general: Time-resolved FRET reads energy transfer from a long-lived donor to a nearby acceptor.)
Procedure: The % inhibition at each concentration was calculated by normalising FRET ratio to the appropriate high (DMSO with all reagents) and low (DMSO without BCL6) controls.

The target of test [2] is BCL6-NCOR2(SMRT) corepressor protein-protein interaction (Homo sapiens (Human), UniProt P41182). In words: NanoBRET cell assay in transfected HEK293T cells. It counts as cell-based. The settings on record: further generated data (Table 2b); HEK293T cells, 6 hr; read-out: NanoBRET cell pIC50 (converted). A general note: Bioluminescence resonance energy transfer reports proximity on the nanometre scale.

Turning to `CC(Nc1cc(=O)n(C)c2ccc(Nc3nc(N4CCC(CC(=O)N(C)C)CC4)ncc3Cl)cc12)c1ncccn1` (stereo not shown) [Example 17e, 2-(1-(5-chloro-4-((1-methyl-2-oxo-4-((1-(pyrimidin-2-yl)ethyl)amino)-1,2-dihydroquinolin-6-yl)amino)pyrimidin-2-yl)piperidin-4-yl)-N,N-dimethylacetamide:formic acid (1:1)], the “HTRF pIC50” value in test [1] turned out to be 6.34. In test [2], the IC50 was 3.47 µM.
With `CC(Nc1cc(=O)n(C)c2ccc(Nc3nc(NCc4cccnc4)ncc3Cl)cc12)c1ncccn1` (stereo not shown) [Example 17f, 6-((5-chloro-2-((pyridin-3-ylmethyl)amino)pyrimidin-4-yl)amino)-1-methyl-4((1-(pyrimidin-2-yl)ethyl)amino)quinolin-2(1H)-one:formic acid (1:1)], in test [1], the “HTRF pIC50” value came out at 6.32. Further, in test [2], the IC50 is 3.24 µM.
For `CC(Nc1cc(=O)n(C)c2ccc(Nc3nc(N4CC5(CCOCC5)C4)ncc3Cl)cc12)c1ncccn1` (stereo not shown) [Example 17h, 6-((5-chloro-2-(7-oxa-2-azaspiro[3.5]nonan-2-yl)pyrimidin-4-yl)amino)-1-methyl-4((1-(pyrimidin-2-yl)ethyl)amino)quinolin-2(1H)-one:formic acid (1:1)] the same measures were 6.20 and 4.17 µM.
For `CC(Nc1cc(=O)n(C)c2ccc(Nc3nc(N4CCC(F)(F)CC4)ncc3Cl)cc12)c1ncccn1` (stereo not shown) [Example 17i, 6-((5-chloro-2-(4,4-difluoropiperidin-1-yl)pyrimidin-4-yl)amino)-1-methyl-4-((1-(pyrimidin-2-yl)ethyl)amino)quinolin-2(1H)-one] the same measures were 6.20 and 2.82 µM.
On to `CC(Nc1cc(=O)n(C)c2ccc(Nc3nc(N4CC(C)(C#N)C4)ncc3Cl)cc12)c1ncccn1` (stereo not shown) [Example 17j, 1-(5-chloro-4-((1-methyl-2-oxo-4-((11-(pyrimidin-2-yl)ethyl)amino)-1,2-dihydroquinoline-6-yl)amino)pyrimidin-2-yl)-3-methylazetidine-3-carbonitrile], for which the “HTRF pIC50” value in test [1] came out at 6.18. Also, in test [2], the IC50 was 4.9 µM.
For `CNC(=O)c1cc(Nc2ccc3c(c2)c(NC(C)c2ncccn2)cc(=O)n3C)c(C#N)c(C)n1` (stereo not shown) [Example 18b, 5-cyano-N, 6-dimethyl-4-((1-methyl-2-oxo-4-((1-(pyrimidin-2-yl)ethyl)amino)-1,2-dihydroquinolin-6-yl)amino)picolinamide] the same measures were 6.40 and 7.08 µM.
As to `CN(C)C(=O)c1cc(Nc2ccc3c(c2)c(NC(C)(C)c2ncccn2)cc(=O)n3C)c(C#N)c(Cl)n1` [Example 19a, 6-chloro-5-cyano-N,N-dimethyl-4-((1-methyl-2-oxo-4-((2-(pyrimidin-2-yl)propan-2-yl)amino)-1,2-dihydroquinolin-6-yl)amino)picolinamide], the “HTRF pIC50” value in test [1] came to 7.55. Further, in test [2], the IC50 was 2.75 µM.
The matching figures for `CC(Nc1cc(=O)n(C)c2ccc(Nc3cc(C(=O)N(C)C)nc(Cl)c3C#N)cc12)c1ncccn1` (stereo not shown) [Example 19b]: 6.99 and 5.25 µM.
For `CNC(=O)c1cc(Nc2ccc3c(c2)c(NC(C)c2ncccn2)cc(=O)n3C)c(C#N)cn1` (stereo not shown) [Example 19c], the IC50 in test [1] (read-out: HTRF pIC50 (converted)) is 0.891 µM; in test [2], 29.5 µM.
`COCC(C)(C)Nc1cc(=O)n(C)c2ccc(Nc3ccnc(Cl)c3C#N)cc12` [Example 19d, 2-chloro-4-((4-((1-methoxy-2-methylpropan-2-yl)amino)-1-methyl-2-oxo-1,2-dihydroquinolin-6-yl)amino)nicotinonitrile]: the “HTRF pIC50” value in test [1] came to 6.51. Moreover, the IC50 in test [2] was 8.71 µM.
With `CCC(C)(COC)Nc1cc(=O)n(C)c2ccc(Nc3cc(C(=O)NC)nc(Cl)c3C#N)cc12` (stereo not shown) [Example 19f, 6-chloro-5-cyano-4-((4-((1-methoxy-2-methylbutan-2-yl)amino)-1-methyl-2-oxo-1,2-dihydroquinolin-6-yl)amino)-N-methylpicolinamide], the “HTRF pIC50” value in test [1] is 6.40. For the same molecule, the IC50 in test [2] is 2.95 µM.
